Assay results from patent publication US4051237A, “Glycopeptide antibiotics Bu-2231 A and B and process for producing same” (priority 1975, dated 1977).
Values after ≈ are worked out from the molar mass of the structure shown.

Legend:
[1] = system: C. tropicalis #125 A15051; experiment: MIC by two-fold agar dilution; assay type: cell-based; conditions: Ct-4 C. tropicalis #125 A15051; sabouraud agar; unit assumed
S. aureus 209P = experiment: MIC by two-fold agar dilution; assay type: cell-based; conditions: Mueller-Hinton agar, unit assumed
E. coli A20732 = experiment: MIC by two-fold agar dilution; assay type: cell-based; conditions: Mueller-Hinton agar, unit assumed
Mycobacterium 607, D46 = experiment: MIC by two-fold agar dilution; assay type: cell-based; conditions: Medium #1001, unit assumed
S. aureus 209P, R4 = experiment: MIC by two-fold agar dilution; assay type: cell-based; conditions: Mueller-Hinton agar, unit assumed
Method: The minimum inhibitory concentrations (MIC) of Bu-2231 A and B were determined against a wide variety of bacteria and fungi by the two-fold agar dilution method. Mueller-Hinton agar medium was used for the determination of bacterial MIC's (gram-positive and gram-negative), Medium #1001 [Glycerol (3%). Na-glutamate (0.3%), peptone (0.2%), Na2 HPO4 (0.31%), KH2 PO4 (0.1%), ammonium citrate (0.005%), MgSO4.7H2 O (0.001%), agar (1.5%)] for acid-fast bacteria and sabouraud agar for fungi. The results are shown in Tables 9 and 10 comparatively with bleomycin and phleomycin. The antibacterial and antifungal activities of Bu-2231 A and B are much higher than those of the reference antibiotics.

E. coli NIHJ = experiment: In vivo activity in experimental mice infection; conditions: Table 12
Method: The in vivo activity of Bu-2231 complex was evaluated in experimental mice infections against S. aureus Smith and E. coli NIHJ. Bleomycin was tested comparatively as a reference antibiotic.
The in vivo activty of the individual components of Bu-2231 in each of the copper-free and copper complex forms was also determined in E. coli infection.

E. coli A20665 = experiment: MIC by two-fold agar dilution; assay type: cell-based; conditions: Mueller-Hinton agar, unit assumed
P. vulgaris A9436 = experiment: MIC by two-fold agar dilution; assay type: cell-based; conditions: Mueller-Hinton agar, unit assumed
K. pneumoniae D11 = experiment: MIC by two-fold agar dilution; assay type: cell-based; conditions: Mueller-Hinton agar, unit assumed
C. tropicalis IAM 4157 = experiment: MIC by two-fold agar dilution; assay type: cell-based; conditions: Ct-1 C. tropicalis IAM 4157; sabouraud agar; unit assumed
C. neoformans IAM 4514 = experiment: MIC by two-fold agar dilution; assay type: cell-based; conditions: Cn-2 C. neoformans IAM 4514; sabouraud agar; unit assumed
Mycobacterium 607, D47 = experiment: MIC by two-fold agar dilution; assay type: cell-based; conditions: Medium #1001, unit assumed
Verticillium sp. = experiment: MIC by two-fold agar dilution; assay type: cell-based; conditions: Vx-1 Verticillium sp.; sabouraud agar; unit assumed
T. mentagrophytes D-155 = experiment: MIC by two-fold agar dilution; assay type: cell-based; conditions: Tm-1 T. mentagrophytes D-155; sabouraud agar; unit assumed
B. anthracis 115 = assay type: cell-based; conditions: Mueller-Hinton agar, unit assumed
S. aureus A20239 = experiment: MIC by two-fold agar dilution; assay type: cell-based; conditions: Mueller-Hinton agar, unit assumed
[2] = mice, single subcutaneous injection, 16 days
Method: The acute toxicity of copper-free Bu-2231 A and B was determined in mice by a single subcutaneous injection. Groups of 3 mice were used for each dose level and the body weight was recorded for 16 days.

S. marcescens A20019 = experiment: MIC by two-fold agar dilution; assay type: cell-based; conditions: Mueller-Hinton agar, unit assumed
P. mirabilis A9554 = experiment: MIC by two-fold agar dilution; assay type: cell-based; conditions: Mueller-Hinton agar, unit assumed
P. citrinum IAM 7008 = experiment: MIC by two-fold agar dilution; assay type: cell-based; conditions: Pt-1 P. citrinum IAM 7008; sabouraud agar; unit assumed
K. pneumoniae A20680 = experiment: MIC by two-fold agar dilution; assay type: cell-based; conditions: Mueller-Hinton agar, unit assumed
C. lunata ATCC 13432 = experiment: MIC by two-fold agar dilution; assay type: cell-based; conditions: Cl-1 C. lunata ATCC 13432; sabouraud agar; unit assumed
B. subtilis PCI-219 = experiment: MIC by two-fold agar dilution; assay type: cell-based; conditions: Mueller-Hinton agar, unit assumed

| Molecule | MIC [1] [µg/mL] | MIC (S. aureus 209P) [µg/mL] | MIC (E. coli A20732) [µg/mL] | MIC (Mycobacterium 607, D46) [µg/mL] | MIC (S. aureus 209P, R4) [µg/mL] | MIC (E. coli A20665) [µg/mL] | MIC (P. vulgaris A9436) [µg/mL] | MIC (K. pneumoniae D11) [µg/mL] | MIC (C. tropicalis IAM 4157) [µg/mL] | MIC (C. neoformans IAM 4514) [µg/mL] | MIC (Mycobacterium 607, D47) [µg/mL] | MIC (Verticillium sp.) [µg/mL] | MIC (T. mentagrophytes D-155) [µg/mL] | MIC (B. anthracis 115) [µg/mL] | MIC (S. aureus A20239) [µg/mL] | MIC (S. marcescens A20019) [µg/mL] | MIC (P. mirabilis A9554) [µg/mL] | MIC (P. citrinum IAM 7008) [µg/mL] | MIC (K. pneumoniae A20680) [µg/mL] | MIC (C. lunata ATCC 13432) [µg/mL] | also measured |
| --- | --- | --- | --- | --- | --- | --- | --- | --- | --- | --- | --- | --- | --- | --- | --- | --- | --- | --- | --- | --- | --- |
| Cc1c(N)nc([C@H](CC(N)=O)NC[C@@H](N)C(N)=O)nc1C(=O)N[C@H](C(=O)N[C@H](C)[C@@H](O)CC(=O)N[C@@H](C(=O)NC(O[C@@H]1O[C@@H](C)[C@@H](N)[C@@H](O)[C@H]1O)C(O)c1nc(-c2nc(C(=O)NCCCNCCCCN)cs2)cs1)[C@@H](C)O)C(O[C@@H]1O[C@@H](CO)[C@H](O)[C@@H](O)[C@@H]1O[C@H]1O[C@H](CO)[C@@H](O)[C@@H](OC(N)=O)[C@@H]1O)c1cnc[nH]1 (stereo partly shown) [Bu-2231 B Cu-free] | 0.8 (≈ 0.499 µM) | 0.4 (≈ 0.249 µM) | 0.2 (≈ 0.125 µM) | 0.1 (≈ 0.0624 µM) | 0.8 (≈ 0.499 µM) | 0.05 (≈ 0.0312 µM) | 0.2 (≈ 0.125 µM) | 0.025 (≈ 0.0156 µM) | 0.8 (≈ 0.499 µM) | 0.2 (≈ 0.125 µM) | 0.05 (≈ 0.0312 µM) | 1.6 (≈ 0.998 µM) | 6.3 (≈ 3.93 µM) | 0.1 (≈ 0.0624 µM) | 0.8 (≈ 0.499 µM) | 0.8 (≈ 0.499 µM) | 0.2 (≈ 0.125 µM) | 1.6 (≈ 0.998 µM) | 25 (≈ 15.6 µM) | 0.2 (≈ 0.125 µM) | PD50 (E. coli NIHJ; E. coli NIHJ infection, mice, sc): 0.065 mg/kg; In vivo activity vs. E. coli NIHJ infection (x/5 mice) (E. coli NIHJ; dose (sc) 0.008): 0/5; In vivo activity vs. E. coli NIHJ infection (x/5 mice) (E. coli NIHJ; dose (sc) 0.03): 1/5; In vivo activity vs. E. coli NIHJ infection (x/5 mice) (E. coli NIHJ; dose (sc) 0.13): 4/5; In vivo activity vs. E. coli NIHJ infection (x/5 mice) (E. coli NIHJ; dose (sc) 0.5): 5/5; In vivo activity vs. E. coli NIHJ infection (x/5 mice) (E. coli NIHJ; dose (sc) 2): 5/5; LD50 [2]: > 50 mg/kg; MIC (B. subtilis PCI-219): < 0.0063 µg/mL |
| Phleomycin [reference compound] | 6.3 | 0.2 | 1.6 | 0.2 | 0.4 | 0.4 | 0.8 | 0.4 | 3.1 | 0.4 | 0.2 | 6.3 | 12.5 | 0.4 | 0.4 | 0.8 | 1.6 | 3.1 | > 100 | 0.4 | MIC (B. subtilis PCI-219): < 0.0063 µg/mL |
